Where “and” joins values, the source holds several entries; their conditions need not be identical. Equal values may be shown once.
Tests used:
Format in all cases: in vivo
[1] = system: Tea plants (Japanese green tea, Yabukita); experiment: Polyphenol content of tea leaves after pre-harvest spraying; design: Total catechin (g): unit not given here; conditions: autumn; for Total catechin (%) when compared to untreated / % compared to untreated (total catechin): untreated = 100%
Protocol: Tea plants (Japanese green tea, Yabukita) were grown in 5 m^2 plots, and the leaves were harvested. The harvested leaves were tested for polyphenols. Fourteen days before harvest, the tea plants were sprayed with a commercial formulation of emamectin benzoate (Affirm™), difenoconazole (Score™), methidathion (Supracid™), azoxystrobin (Amistar™) or a mixture of lufenuron and thiamethoxam. An otherwise identical set of tea plants were left untreated.
The experiment was repeated using either azoxystrobin or trifloxystrobin.
Both trials detailed above were carried out in the autumn. […] It is proposed that, when photosynthesis is active (e.g. in the summer season), addition of azoxystrobin may not enhance photosynthesis further and thus may not be able to further raise catechin levels.

Carrot plants = experiment: β-carotene content of harvested carrots after azoxystrobin spraying; conditions: conventional treatment plus Amistar Opti (azoxystrobin and chlorothalonil)
Protocol: Carrot plants were grown and the carrots were harvested after spraying twice with a conventional fungicide treatment (chlorothalonil, copper hydroxide, iminoctazine polyoxin and tolclofos-methyl) and with the conventional treatment plus Amistar Opti™ (azoxystrobin and chlorothalonil). Some of the harvested carrots were analysed immediately on harvest for β-carotene while others were stored for a week after harvest before analysis. […] It seems therefore that azoxystrobin has a clear effect on β-carotene levels in mature carrots.

soybean = experiment: Isoflavone levels in soybean after azoxystrobin treatment
Protocol: (§1) Similar work was carried out to look at isoflavone levels in soybean and anthocyanin levels in eggplant and strawberry on treatment of the plants with azoxystrobin. […] In addition, it also raised anthocyanin levels in strawberry by 50% (control: 200-220 mg anthocyanin/100 g strawberry; azoxystrobin treated: 210-420 mg anthocyanin/100 g strawberry), although it seemed to have no effect on anthocyanin levels in egg plant.

eggplant = experiment: Anthocyanin levels in eggplant after azoxystrobin treatment; conditions: egg plant
Protocol: as §1

strawberry = experiment: Anthocyanin levels in strawberry after azoxystrobin treatment
Protocol: as §1

[2] = system: Tomato plants (Variety: Sunroad); experiment: Lycopene content of harvested tomatoes after azoxystrobin spraying; conditions: for lycopene content, single replicate: stored at room temperature, listed as Az-treated; for lycopene content, single replicate / lycopene content, mean of 3 replicates: conventional fungicide treatment plus azoxystrobin
Protocol: Tomato plants (Variety: Sunroad) were grown and the tomatoes were harvested after spraying with a conventional fungicide treatment and with the conventional treatment plus azoxystrobin. The harvested tomatoes were stored at room temperature and tested for lycopene concentration 2, 5, 9 and 12 days after sample harvesting (three tomatoes were chosen at random from each box on each day of testing).
When this study was repeated using similar conditions but on a smaller scale, a marked rise in lycopene content was not observed (control: 11.7 mg lycopene/100 g tomato; azoxystrobin treated: 10.7 mg lycopene/100 g tomato).

[3] = Table 1 trial, commercial formulation sprayed 14 days before harvest
[4] = 12 days after sample harvesting

Molecule	Epicatechin [1, 3]	Epicatechin gallate [1, 3]	Epigalocatechin [1, 3]	Epigalocatechin gallate [1, 3]	Total catechin (%) when compared to untreated ([1]; Table 1 trial)	Epicatechin ([1]; Table 2 repeat trial)	Epicatechin gallate ([1]; Table 2 repeat trial)	Epigalocatechin ([1]; Table 2 repeat trial)	Epigalocatechin gallate ([1]; Table 2 repeat trial)	Total catechin ([1]; Table 2 repeat trial)	% compared to untreated (total catechin) ([1]; Table 2 repeat trial)	further results
CO/C=C(/C(=O)OC)c1ccccc1Oc1cc(Oc2ccccc2C#N)ncn1 [Azoxystrobin, azoxystrobin]	930 mg polyphenol/100 g tea leaves	960 mg polyphenol/100 g tea leaves	4800 mg polyphenol/100 g tea leaves	6200 mg polyphenol/100 g tea leaves	113%	24.5 mg polyphenol/g tea leaves	31.1 mg polyphenol/g tea leaves	178.8 mg polyphenol/g tea leaves	160.6 mg polyphenol/g tea leaves	395.0 mg polyphenol/g tea leaves	107%	β-carotene levels compared with conventional fungicide regime (Carrot plants; carrots analysed immediately on harvest, sprayed twice): did not show an increase; β-carotene content (Carrot plants; carrots stored for one week after harvest, conventional treatment 6.59): 7.48 mg β-carotene/100 g carrot; isoflavone content (soybean; control 120): 130 mg isoflavone/100 g soybean; increase of isoflavone levels (soybean; soybean, versus control): 8%; effect on anthocyanin levels (eggplant): no effect; anthocyanin content (strawberry; control 200-220): 210-420 mg anthocyanin/100 g strawberry; rise of anthocyanin levels (strawberry; strawberry, versus control): 50%; lycopene content, single replicate ([2]; 2 days after sample harvesting): 5.69 mg lycopene/100 g tomato and 5.67 mg lycopene/100 g tomato and 5.14 mg lycopene/100 g tomato; lycopene content, mean of 3 replicates ([2]; 2 days after sample harvesting): 5.50 mg lycopene/100 g tomato; lycopene content, single replicate ([2]; 5 days after sample harvesting): 8.36 mg lycopene/100 g tomato and 8.87 mg lycopene/100 g tomato and 6.01 mg lycopene/100 g tomato; lycopene content, mean of 3 replicates ([2]; 5 days after sample harvesting): 7.75 mg lycopene/100 g tomato; lycopene content, single replicate ([2]; 9 days after sample harvesting): 9.78 mg lycopene/100 g tomato and 9.14 mg lycopene/100 g tomato and 8.32 mg lycopene/100 g tomato; lycopene content, mean of 3 replicates ([2]; 9 days after sample harvesting): 9.08 mg lycopene/100 g tomato; lycopene content, single replicate [2, 4]: 8.27 mg lycopene/100 g tomato and 8.88 mg lycopene/100 g tomato and 9.24 mg lycopene/100 g tomato; lycopene content, mean of 3 replicates [2, 4]: 8.79 mg lycopene/100 g tomato; lycopene content ([2]; repeat study, similar conditions, smaller scale, control 11.7): 10.7 mg lycopene/100 g tomato
CC1COC(Cn2cncn2)(c2ccc(Oc3ccc(Cl)cc3)cc2Cl)O1 (stereo not shown) [DFZ, difenoconazole]	950 mg polyphenol/100 g tea leaves	970 mg polyphenol/100 g tea leaves	4300 mg polyphenol/100 g tea leaves	5900 mg polyphenol/100 g tea leaves	106%	–	–	–	–	–	–	–
COc1nn(CSP(=S)(OC)OC)c(=O)s1 [MTH, methidathion]	1100 mg polyphenol/100 g tea leaves	1100 mg polyphenol/100 g tea leaves	4500 mg polyphenol/100 g tea leaves	5700 mg polyphenol/100 g tea leaves	109%	–	–	–	–	–	–	–
CON=C(C(=O)OC)c1ccccc1CON=C(C)c1cccc(C(F)(F)F)c1 [Trifloxystrobin, trifloxystrobin]	–	–	–	–	–	23.8 mg polyphenol/g tea leaves	32.4 mg polyphenol/g tea leaves	190.1 mg polyphenol/g tea leaves	163.0 mg polyphenol/g tea leaves	409.3 mg polyphenol/g tea leaves	110%	–
emamectin benzoate	960 mg polyphenol/100 g tea leaves	890 mg polyphenol/100 g tea leaves	4600 mg polyphenol/100 g tea leaves	5600 mg polyphenol/100 g tea leaves	106%	–	–	–	–	–	–	Total catechin (g) ([1]; Table 1 trial, sprayed 14 days before harvest, table title: mg polyphenol/100 g tea leaves): 12050
